US12337037B2, “Taxol conjugate compounds, pharmaceutical compositions comprising the same, and methods for their use” (N1 Life, Inc, priority 2021, dated 2025)
Entries after “also recorded” stand apart in the source; their conditions may differ. Where two headings read alike, the source gives them in different places.

Legend:
[1] = system: liver cancer Hep 3B cells; test: CCK-8 cytotoxicity / anti-proliferation assay, Hep 3B; format: cell-based; conditions: for Anti-proliferation %: 4 μM
Procedure: (§1) Cytotoxicity Assay—CCK8 Cancer Cells
The CCK-8 assay was applied to study the cytotoxicity of the peptide drug conjugates and their inhibition of proliferation of cancer cells. First, 2˜10×10^3 cells (depending on the rate of growth of different cell lines) with 100 μL, DMEM media were seeded in normal culture medium into each well of a 96-well plate. The cells were then cultured overnight at 37° C. with 4˜5% CO2. Different doses (4000, 2000, 1000, 500 nM for Hep3B, Hep G2 and MCF7/MBA-MD-231; 1000, 333.3, 100.0, 33.33, 3.333, 1.000, 0.333 nM for MCF7/ADR, 22Rv1, CNE1, HCT116, DLD-1) of Taxol and peptide drugs were added. After 48˜72 hour incubation, CCK-8 solution was added to each well. The cells were then incubated at 37° C. for 4 hours. The optical density was measured at 450/650 nm using a multiscan spectrometer (PerkinElmer's EnSpire Multilabel Plate Reader). The optical density is linearly proportional to the number of living cells in the sample: […]

[2] = system: 22Rv1 human prostate carcinoma epithelial cell line; test: cells
Procedure: as §1
(§2) The CCK-8 assay was applied to study the cytotoxicity of the peptide drug conjugates and their inhibition of proliferation of cancer cells. First, 2˜10×10^3 cells (depending on the rate of growth of different cell lines) with 100 μL, DMEM media were seeded in normal culture medium into each well of a 96-well plate. The cells were then cultured overnight at 37° C. with 4˜5% CO2. Different doses (4000, 2000, 1000, 500 nM for Hep3B, Hep G2 and MCF7/MBA-MD-231; 1000, 333.3, 100.0, 33.33, 3.333, 1.000, 0.333 nM for MCF7/ADR, 22Rv1, CNE1, HCT116, DLD-1) of Taxol and peptide drugs were added. After 48˜72 hour incubation, CCK-8 solution was added to each well. The cells were then incubated at 37° C. for 4 hours. The optical density was measured at 450/650 nm using a multiscan spectrometer (PerkinElmer's EnSpire Multilabel Plate Reader). The optical density is linearly proportional to the number of living cells in the sample:
(§3) The plate layout for MCF7/ADR, 22Rv1, CNE1, HCT116, DLD-1 cell lines is shown below.

[3] = system: CNE1 nasopharyngeal carcinoma cell line; test: cells; conditions: read-out: IC50 nM
Procedure: as §1, §2, §3

[4] = system: DLD-1 colorectal adenocarcinoma cell line; test: cells
Procedure: as §1, §2, §3

[5] = system: HCT116 human colorectal carcinoma cell; test: cells
Procedure: as §1, §2, §3

[6] = system: MCF7/ADR multidrug-resistant breast cancer cell; test: cells; conditions: read-out: IC50 nM
Procedure: as §1, §2, §3

[7] = Stability in buffer; format: physicochemical; conditions: for half-life at 5 μM: buffer solution, read-out: Mean T 1/2 (converted)
Procedure: Working solutions of Compound 5 (1 mM of) and Compound 3 (1 mM) were prepared. Buffer solution (199 μL) was prepared and divided into fourteen incubation tubes. The tubes were then pre-warmed at 37° C. for 15 minutes. The 1 mM Compound 5 working solution was added to seven incubation tubes (1 μL each) for a final concentration of 5 μM and the 1 mM Compound 3 working solution was added to seven incubation tubes (1 μL each) for a final concentration of 5 μM. For Compound 5, the final concentration of organic solvents was 0.5%. Each samples was incubated at 37° C. for 0, 4, 8, 24, 48, 72, or 120 hours. The assay was performed in duplicate. After incubation for 0, 4, 8, 24, 48, 72 or 120 hours, reactions were quenched by the addition of 1000 μL methanol (pre-cool treatment under 4° C.) with 2% FA containing internal standards. All samples were vortexed for 10 minutes. 150 μL of the supernatant from each sample was transferred to a new plate. 150 μL of pure water was added to each sample for analysis by LC-MS/MS (cooler temperature: 15° C.). All calculations were carried out using Microsoft Excel. Peak area ratios were determined from extracted ion chromatograms. Percent compounds remaining at each time point were calculated by the following equation: Remaining Percentaget min(%)=(Peak Area Ratiot min/Peak Area Ratio0 min)×100
Peak Area Ratiot min is peak area ratio of test compounds at t min; and
Peak Area Ratio0 min is peak area ratio of test compounds at zero time point.
The slope value, k, was determined by linear regression of the natural logarithm of the remaining percentage of the parent drug vs. incubation time curve.
The in vitro half-life (in vitro t1/2) was determined from the slope value: in vitro t1/2=(0.693/k) Appearance of Taxol concentration (nM)=Peak Area Ratio t min/Peak Area Ratio(Taxol: 5 μM)×5000% Appearance of Taxol=Peak Area Ratio min/Peak Area Ratio(Taxol: 5 μM)×100

[8] = system: Human ovarian cancer (SKOV-3-GFP) cells; test: Efficacy in metastatic ovarian cancer model (peritoneal disseminated metastasis); format: in vivo, Female athymic nude mice; conditions: for acute toxic effect / animal death: ovarian cancer model; for mean tumor fluorescence area as % of the Vehicle (PBS) group / Average tumor area on day 0 (MEAN ± SD) / Average tumor area on day 21 (MEAN ± SD) / Mean tumor mass (g) (MEAN ± SD) / Average tumor inhibitory rate (%) (MEAN ± SD): Taxol 10 mg/kg; for mean tumor fluorescence area as % of the Vehicle (PBS) group: Compound 3 / Compound 5 9.6 mg/kg IP Q5D; for Average tumor area on day 0 (MEAN ± SD): baseline fluorescence area; for Average tumor area on day 21 (MEAN ± SD): fluorescence area; for Mean tumor mass (g) (MEAN ± SD): conjugate 9.6 mg/kg IP Q5D; for Average tumor inhibitory rate (%) (MEAN ± SD): from final tumor weights
Procedure: The tumor samples were then stored in formalin solution.
Method: The method was the same as described for Biological Example 4.
Endpoint tumor load of each group: At Day 21 after administration, the tumor load of each group was calculated by dissecting and weighing the tumor in the abdominal cavity. The vehicle was the control.
Tumor inhibitory rate (IR): Tumor IR was calculated based on the final average tumor weights according to the formula: IR (%)=(1-treatment(t)/control(c))×100

[9] = read-out: IC50 nM, HCT116 cells
[10] = Table 8A (Compound 3 set), Compd 3 9.6 mg/kg IP Q5D
[11] = Table 9B (titled Compound 5 set), Day 21
[12] = Table 10A (Compound 3 set), Day 21, Compd 3 9.6 mg/kg IP Q5D
[13] = Table 8B (Compound 5 set), Compd 5 9.6 mg/kg IP Q5D
[14] = Table 9A (titled Compound 3 set), Day 21
[15] = Table 10B (Compound 5 set), Day 21, Compd 5 9.6 mg/kg IP Q5D

| Structure (SMILES) | Anti-proliferation % [1] [%] | IC50 ([2]; read-out: IC50 nM, 22Rv1 cells) [nM] | IC50 ([3]; CNE1 cells) [nM] | IC50 ([4]; read-out: IC50 nM, DLD-1 cells) [nM] | IC50 [5, 9] [nM] | IC50 ([6]; MCF7/ADR cells) [nM] | half-life at 5 μM ([7]; buffer pH 5.5, 37° C.) [days] | half-life at 5 μM ([7]; buffer pH 6.0, 37° C.) [days] | half-life at 5 μM ([7]; buffer pH 6.5, 37° C.) [days] | half-life at 5 μM ([7]; buffer pH 7.4, 37° C.) [days] | acute toxic effect / animal death ([8]; 9.6 mg/kg IP Q5D) | mean tumor fluorescence area as % of the Vehicle (PBS) group ([8]; Day 21) | Average tumor area on day 0 (MEAN ± SD) [8, 10] | Average tumor area on day 21 (MEAN ± SD) [8, 10] | Mean tumor mass (g) (MEAN ± SD) [8, 11] | Average tumor inhibitory rate (%) (MEAN ± SD) [8, 12] | Average tumor area on day 0 (MEAN ± SD) [8, 13] | Average tumor area on day 21 (MEAN ± SD) [8, 13] | Mean tumor mass (g) (MEAN ± SD) [8, 14] | Average tumor inhibitory rate (%) (MEAN ± SD) [8, 15] | further results |
| --- | --- | --- | --- | --- | --- | --- | --- | --- | --- | --- | --- | --- | --- | --- | --- | --- | --- | --- | --- | --- | --- |
| CC(=O)N[C@@H](CSSCCCC(=O)OC(C(=O)O[C@H]1C[C@@]2(O)[C@@H](OC(=O)c3ccccc3)[C@@H]3[C@]4(OC(C)=O)CO[C@@H]4C[C@H](O)[C@@]3(C)C(=O)[C@H](OC(C)=O)C(=C1C)C2(C)C)[C@@H](NC(=O)c1ccccc1)c1ccccc1)C(=O)N[C@H](CCCNC(=N)N)C(=O)N[C@H](CCCNC(=N)N)C(=O)N[C@H](CCCNC(=N)N)C(=O)N[C@H](CCCNC(=N)N)C(=O)N[C@H](CCCNC(=N)N)C(=O)N[C@H](CCCNC(=N)N)C(=O)N[C@H](CCCNC(=N)N)C(=O)N[C@H](CCCNC(=N)N)C(N)=O (stereo partly drawn) [Compound 3, Ac-L-Cysteine (paclitaxel-4-mercaptobutanoate)-D-Arginine8-NH2] | 36.0 | 21.6 | 15.9 | 62 | 21.5 | 438 | 5.19 | 4.14 | 3.85 | 2.28 | no obvious acute toxic effect | about 20% | 18.6 ± 5.3 | 30.9 ± 24.2 | 0.2555 ± 0.1388 | 90±8 |  |  |  |  | cancer cell inhibition compared to Compound 5 (FIG. 2A) ([1]; all tested concentrations (500-4000 nM)): substantially superior to cancer cell inhibition compared to Compound 5 at all tested concentrations; Percent Increase of T1/2, Compound 3 over Compound 5 ([7]; buffer pH 5.5): 6.05%; Percent Increase of T1/2, Compound 3 over Compound 5 ([7]; buffer pH 6.0): 6.36%; Percent Increase of T1/2, Compound 3 over Compound 5 ([7]; buffer pH 6.5): 8.01%; Percent Increase of T1/2, Compound 3 over Compound 5 ([7]; buffer pH 7.4): 10.67%; tumor inhibition effect, better than Compound 5 ([8]; 9.6 mg/kg): at least 10%; average tumor fluorescence area as % of the Taxol (10 mg/kg) group ([8]; Day 21, 9.6 mg/kg IP Q5D): about 100%; average tumor weight as % of the Vehicle group ([8]; Day 21, 9.6 mg/kg IP Q5D): about 10%; Average tumor inhibitory rate (%) (MEAN ± SD) ([8]; Table 10A (Compound 3 set), Day 21, Compd 3 9.6 mg/kg IP Q5D, listed as Compd 3): 90 ± 8% |
| CC(=O)N[C@H](CSSCCCC(=O)O[C@@H](C(=O)O[C@H]1C[C@@]2(O)[C@@H](OC(=O)c3ccccc3)[C@@H]3[C@]4(OC(C)=O)CO[C@@H]4C[C@H](O)[C@@]3(C)C(=O)[C@H](OC(C)=O)C(=C1C)C2(C)C)[C@@H](NC(=O)c1ccccc1)c1ccccc1)C(=O)N[C@H](CCCNC(=N)N)C(=O)N[C@H](CCCNC(=N)N)C(=O)N[C@H](CCCNC(=N)N)C(=O)N[C@H](CCCNC(=N)N)C(=O)N[C@H](CCCNC(=N)N)C(=O)N[C@H](CCCNC(=N)N)C(=O)N[C@H](CCCNC(=N)N)C(=O)N[C@H](CCCNC(=N)N)C(N)=O [Compound 5, Ac-D-Cysteine (paclitaxel-4-mercaptobutanoate)-D-Arginine8-NH2] | 23.2 | 29.3 | 19.3 | 110 | 23.5 | > 1000 | 4.89 | 3.9 | 3.56 | 2.06 | caused animal death; also recorded: one animal died at Day 18 | 10% |  |  |  |  | 24.9 ± 6.6 | 28.7 ± 19.8 | 0.178 ± 0.143 | 79±11 | tumor inhibitory effect, less effective than Taxol ([8]; 9.6 mg/kg vs Taxol 10 mg/kg): about 10%; Average tumor inhibitory rate (%) (MEAN ± SD) ([8]; Table 10B (Compound 5 set), Day 21, Compd 5 9.6 mg/kg IP Q5D, listed as Compd 5): 79 ± 11% |
| CC(=O)O[C@H]1C(=O)[C@@]2(C)[C@H]([C@H](OC(=O)c3ccccc3)[C@]3(O)C[C@H](OC(=O)[C@H](O)[C@@H](NC(=O)c4ccccc4)c4ccccc4)C(C)=C1C3(C)C)[C@]1(OC(C)=O)CO[C@@H]1C[C@@H]2O [Taxol, paclitaxel] | 11.5 |  |  |  |  |  |  |  |  |  |  | 8-16% | 18.4 ± 3.3 | 24.8 ± 27.1 | 0.1970 ± 0.1248 | 90 ± 8 | 22.8 ± 4.1 | 22.7 ± 15.5 | 0.174 ± 0.141 | 84 ± 10 | IC50 ([2]; Homo sapiens, 22Rv1, read-out: IC50 nM): 4.95 nM; IC50 [3]: 1.12 nM; IC50 ([4]; Homo sapiens, DLD-1, read-out: IC50 nM): 9.98 nM; IC50 ([5]; Homo sapiens, HCT-116, read-out: IC50 nM): 2.79 nM; IC50 ([6]; Homo sapiens, NCI/ADR-RES): > 1000 nM |
